Values joined by “and” are separate entries in the source; they are usually repeats but may differ in a detail not shown here. Identical values can stand only once. Inconclusive results and toxic doses are left out.
Test system: CD2F1 mice, L1210 leukemia ip, survival T/C
Test: NCI In Vivo Anticancer Drug Screen. Data for tumor model L1210 Leukemia (intraperitoneal) in CD2F1 (CDF1) mice
Conditions: higher = longer survival
How it was run: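 Implant tumor; dose compound or vehicle; measure endpoint in both groups; report treated divided by control.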

[1] = endpoint: mean survival time, dose: 12.5 mg/kg/injection, schedule: Q01DX009 (ip), vehicle: saline with Tween-80
[2] = endpoint: mean survival time, dose: 25.0 mg/kg/injection, schedule: Q01DX009 (ip), vehicle: saline with Tween-80
[3] = endpoint: mean survival time, dose: 100.0 mg/kg/injection, schedule: Q01DX009 (ip), vehicle: saline with Tween-80
[4] = endpoint: mean survival time, dose: 100.0 mg/kg/injection, schedule: Q04DX002 (ip), vehicle: saline with Tween-80
[5] = endpoint: mean survival time, dose: 200.0 mg/kg/injection, schedule: Q04DX002 (ip), vehicle: saline with Tween-80
[6] = endpoint: mean survival time, dose: 400.0 mg/kg/injection, schedule: Q04DX002 (ip), vehicle: saline with Tween-80
[7] = endpoint: mean survival time, dose: 100.0 mg/kg/injection, schedule: Q04DX003 (ip), vehicle: saline with Tween-80
[8] = endpoint: mean survival time, dose: 200.0 mg/kg/injection, schedule: Q04DX003 (ip), vehicle: saline with Tween-80
[9] = endpoint: mean survival time, dose: 400.0 mg/kg/injection, schedule: Q04DX003 (ip), vehicle: saline with Tween-80
[10] = endpoint: mean survival time, dose: 100.0 mg/kg/injection, schedule: Q01DX009 (ip), vehicle: saline
[11] = endpoint: mean survival time, dose: 200.0 mg/kg/injection, schedule: Q01DX009 (ip), vehicle: saline
[12] = endpoint: mean survival time, dose: 100.0 mg/kg/injection, schedule: Q01DX001 (ip), vehicle: saline
[13] = endpoint: mean survival time, dose: 200.0 mg/kg/injection, schedule: Q01DX001 (ip), vehicle: saline
[14] = endpoint: mean survival time, dose: 400.0 mg/kg/injection, schedule: Q01DX001 (ip), vehicle: saline
[15] = endpoint: mean survival time, dose: 200.0 mg/kg/injection, schedule: Q01DX009 (ip), vehicle: saline with Tween-80
[16] = endpoint: mean survival time, dose: 400.0 mg/kg/injection, schedule: Q01DX009 (ip), vehicle: saline with Tween-80
[17] = endpoint: mean survival time, dose: 50.0 mg/kg/injection, schedule: Q01DX009 (ip), vehicle: saline with Tween-80
[18] = endpoint: mean survival time, dose: 200.0 mg/kg/injection, schedule: Q01DX001 (ip), vehicle: saline with Tween-80

## O=C(O)C1(C(=O)O)CCC1.[NH2-].[NH2-].[Pt+2]
endpoint: mean survival time, dose: 3.12 mg/kg/injection, schedule: Q01DX009 (ip), vehicle: dextrose
  T/C: 110 % of control
endpoint: mean survival time, dose: 6.25 mg/kg/injection, schedule: Q01DX009 (ip), vehicle: dextrose
  T/C: 118 % of control
endpoint: mean survival time, dose: 6.25 mg/kg/injection, schedule: Q01DX009 (ip), vehicle: other
  T/C: 107 % of control
endpoint: mean survival time, dose: 12.5 mg/kg/injection, schedule: Q01DX009 (ip), vehicle: dextrose
  T/C: 110 % of control
[1]
  T/C: 108 % of control
endpoint: mean survival time, dose: 12.5 mg/kg/injection, schedule: Q04DX003 (ip), vehicle: water
  T/C: 109 % of control
[2]
  T/C: 117 % of control
endpoint: mean survival time, dose: 25.0 mg/kg/injection, schedule: Q01DX009 (ip), vehicle: water
  T/C: 152 % of control
endpoint: mean survival time, dose: 25.0 mg/kg/injection, schedule: Q04DX003 (ip), vehicle: water
  T/C: 112 % of control
endpoint: mean survival time, dose: 50.0 mg/kg/injection, schedule: Q01DX009 (ip), vehicle: dextrose
  T/C: 113 % of control
endpoint: mean survival time, dose: 100.0 mg/kg/injection, schedule: Q01DX009 (ip), vehicle: other
  T/C: 90 % of control
[3]
  T/C: 96 % of control
endpoint: mean survival time, dose: 100.0 mg/kg/injection, schedule: Q04DX003 (ip), vehicle: water
  T/C: 105 % of control
endpoint: median survival time, dose: 60.0 mg/kg/injection, schedule: Q01DX009 (ip), vehicle: clinical formulation
  T/C: 109 % of control
endpoint: median survival time, dose: 90.0 mg/kg/injection, schedule: Q01DX009 (ip), vehicle: dextrose
  T/C: 124 % of control

## Cc1ccc(/C(C#N)=C/c2ccc3c(c2)OCO3)cc1
[4]
  T/C: 94 % of control
[5]
  T/C: 97 % of control
[6]
  T/C: 91 % of control

## Cc1ccc(OCCOc2ccc(C(=O)O)cc2)cc1
endpoint: mean survival time, dose: 7.5 mg/kg/injection, schedule: Q01DX009 (ip), vehicle: Klucel (hydroxypropylcellulose) (HPC)
  T/C: 100 % of control
endpoint: mean survival time, dose: 15.0 mg/kg/injection, schedule: Q01DX009 (ip), vehicle: Klucel (hydroxypropylcellulose) (HPC)
  T/C: 98 % of control
endpoint: mean survival time, dose: 30.0 mg/kg/injection, schedule: Q01DX009 (ip), vehicle: Klucel (hydroxypropylcellulose) (HPC)
  T/C: 96 % of control

## O=C(NC(NC(=O)c1ccc(Cl)cc1)C(Cl)(Cl)Cl)c1ccc(Cl)cc1
endpoint: mean survival time, dose: 25.0 mg/kg/injection, schedule: Q04DX003 (ip), vehicle: saline with Tween-80
  T/C: 98 % of control
endpoint: mean survival time, dose: 50.0 mg/kg/injection, schedule: Q04DX003 (ip), vehicle: saline with Tween-80
  T/C: 88 % of control
[7]
  T/C: 90 % of control

## OCC(O)C1OC(SCc2ccccc2)C(O)C(O)C1O (stereo unspecified)
[7]
  T/C: 91 % of control
[8]
  T/C: 100 % of control
[9]
  T/C: 107 % of control

## O=S(=O)(/C=C(/Br)c1ccccc1)c1ccccc1
[10]
  T/C: 96 % of control
endpoint: mean survival time, dose: 100.0 mg/kg/injection, schedule: Q04DX003 (ip), vehicle: saline
  T/C: 100 % of control
[11]
  T/C: 91 % of control
endpoint: mean survival time, dose: 200.0 mg/kg/injection, schedule: Q04DX003 (ip), vehicle: saline
  T/C: 100 % of control
endpoint: mean survival time, dose: 400.0 mg/kg/injection, schedule: Q01DX009 (ip), vehicle: saline
  T/C: 90 % of control
endpoint: mean survival time, dose: 400.0 mg/kg/injection, schedule: Q04DX003 (ip), vehicle: saline
  T/C: 100 % of control

## CCN=C(NCC)SCCSC(=NCC)NCC
[4]
  T/C: 104 % of control
[5]
  T/C: 102 % of control

## O=c1nc2n(CCO)c3ccccc3cc-2c(=O)[nH]1
[12]
  T/C: 95 % of control
[13]
  T/C: 95 % of control
[14]
  T/C: 89 % of control

## Cc1ccc2ccccc2c1N(CC(=O)O)S(=O)(=O)c1ccccc1
[3]
  T/C: 103 % of control
[15]
  T/C: 101 % of control
[16]
  T/C: 88 % of control

## O=C(NC(=S)Nc1cc(Cl)ccc1Cl)c1cccc(Br)c1
[17]
  T/C: 100 % of control
endpoint: mean survival time, dose: 100.0 mg/kg/injection, schedule: Q01DX001 (ip), vehicle: saline with Tween-80
  T/C: 100 % of control
[3]
  T/C: 101 % of control and 105 % of control and 106 % of control
[4]
  T/C: 89 % of control and 95 % of control
[7]
  T/C: 94 % of control
[18]
  T/C: 97 % of control
[15]
  T/C: 98 % of control and 101 % of control
[5]
  T/C: 90 % of control and 95 % of control
[8]
  T/C: 90 % of control
endpoint: mean survival time, dose: 400.0 mg/kg/injection, schedule: Q01DX001 (ip), vehicle: saline with Tween-80
  T/C: 100 % of control
[16]
  T/C: 115 % of control (2×) and 105 % of control
[6]
  T/C: 92 % of control and 95 % of control
[9]
  T/C: 86 % of control

## CCCCCCCCCCCCCCOc1ccc(Cl)cc1
[4]
  T/C: 87 % of control
[5]
  T/C: 87 % of control

## O=c1c2ccccc2sc2c1ccc1c2ccc2c(=O)c3ccccc3sc21
endpoint: mean survival time, dose: 50.0 mg/kg/injection, schedule: Q01DX009 (ip), vehicle: Klucel (hydroxypropylcellulose) (HPC)
  T/C: 104 % of control
endpoint: mean survival time, dose: 100.0 mg/kg/injection, schedule: Q01DX009 (ip), vehicle: Klucel (hydroxypropylcellulose) (HPC)
  T/C: 98 % of control
endpoint: mean survival time, dose: 200.0 mg/kg/injection, schedule: Q01DX009 (ip), vehicle: Klucel (hydroxypropylcellulose) (HPC)
  T/C: 98 % of control

## CCOC(=O)C(O)(CC)CCC(C)C (stereo unspecified)
[7]
  T/C: 105 % of control
[8]
  T/C: 86 % of control

## Cc1nc2c(=O)n(C3OC(CO)C(O)C3O)cnc2o1 (stereo unspecified)
endpoint: mean survival time, dose: 100.0 mg/kg/injection, schedule: Q01DX005 (ip), vehicle: saline
  T/C: 103 % of control

## COc1cc(OC)c(NC(=O)OCCOc2cc(C)c(Cl)c(C)c2)cc1Cl
[1]
  T/C: 95 % of control
[2]
  T/C: 95 % of control
[17]
  T/C: 98 % of control
[3]
  T/C: 88 % of control

## NC(CSC(c1ccccc1)(c1ccccc1)c1ccccc1)C(=O)NCC(=O)O (stereo unspecified)
endpoint: mean survival time, dose: 25.0 mg/kg/injection, schedule: Q01DX009 (ip), vehicle: saline
  T/C: 110 % of control
[11]
  T/C: 171 % of control

## S=C1NCc2ccccc2N1
endpoint: mean survival time, dose: 25.0 mg/kg/injection, schedule: Q01DX001 (ip), vehicle: Klucel (hydroxypropylcellulose) (HPC)
  T/C: 101 % of control
endpoint: mean survival time, dose: 50.0 mg/kg/injection, schedule: Q01DX001 (ip), vehicle: Klucel (hydroxypropylcellulose) (HPC)
  T/C: 101 % of control
endpoint: mean survival time, dose: 100.0 mg/kg/injection, schedule: Q01DX001 (ip), vehicle: Klucel (hydroxypropylcellulose) (HPC)
  T/C: 112 % of control

## CNc1cc([N+](=O)[O-])ccc1Br
endpoint: mean survival time, dose: 100.0 mg/kg/injection, schedule: Q04DX002 (ip), vehicle: other
  T/C: 91 % of control
endpoint: mean survival time, dose: 200.0 mg/kg/injection, schedule: Q04DX002 (ip), vehicle: other
  T/C: 100 % of control
endpoint: mean survival time, dose: 400.0 mg/kg/injection, schedule: Q04DX002 (ip), vehicle: other
  T/C: 95 % of control

## Oc1c(Br)cc(Br)cc1C=Nc1ccc(Br)cc1
[7]
  T/C: 110 % of control
[8]
  T/C: 97 % of control
[9]
  T/C: 95 % of control

## O=C(O)c1cc(-c2ccccc2)nc2c1ccc1ccccc12
[12]
  T/C: 103 % of control
[13]
  T/C: 102 % of control
[14]
  T/C: 97 % of control

## c1ccc2c(c1)NCCN2
endpoint: mean survival time, dose: 25.0 mg/kg/injection, schedule: Q01DX001 (ip), vehicle: saline + alcohol
  T/C: 100 % of control
endpoint: mean survival time, dose: 50.0 mg/kg/injection, schedule: Q01DX001 (ip), vehicle: saline + alcohol
  T/C: 100 % of control
endpoint: mean survival time, dose: 100.0 mg/kg/injection, schedule: Q01DX001 (ip), vehicle: saline + alcohol
  T/C: 106 % of control

## CCCCCCN(CCCCCC)CC(O)c1cccc2c1cc(Cl)c1ccccc12 (stereo unspecified)
[17]
  T/C: 96 % of control
[3]
  T/C: 100 % of control
[7]
  T/C: 95 % of control
[15]
  T/C: 98 % of control
[8]
  T/C: 101 % of control

## O=c1ccnc(C(F)(F)F)[nH]1
[10]
  T/C: 101 % of control
[11]
  T/C: 95 % of control

## Oc1ccc(Br)cc1/C=N/c1nc(-c2ccccc2)cs1.Oc1ccc(Br)cc1/C=N/c1nc(-c2ccccc2)cs1.[Cu]
endpoint: mean survival time, dose: 12.5 mg/kg/injection, schedule: Q01DX001 (ip), vehicle: saline
  T/C: 87 % of control
endpoint: mean survival time, dose: 25.0 mg/kg/injection, schedule: Q01DX001 (ip), vehicle: saline
  T/C: 100 % of control
endpoint: mean survival time, dose: 50.0 mg/kg/injection, schedule: Q01DX001 (ip), vehicle: saline
  T/C: 91 % of control
[18]
  T/C: 93 % of control

## CC(=O)Oc1cccc(/C=C/[N+](=O)[O-])c1
endpoint: mean survival time, dose: 75.0 mg/kg/injection, schedule: Q01DX001 (ip), vehicle: steriod suspending solution
  T/C: 97 % of control
endpoint: mean survival time, dose: 150.0 mg/kg/injection, schedule: Q01DX001 (ip), vehicle: steriod suspending solution
  T/C: 97 % of control
endpoint: mean survival time, dose: 300.0 mg/kg/injection, schedule: Q01DX001 (ip), vehicle: steriod suspending solution
  T/C: 110 % of control

## O=P(O)(CCCCl)c1ccccc1
endpoint: mean survival time, dose: 25.0 mg/kg/injection, schedule: Q04DX002 (ip), vehicle: saline with Tween-80
  T/C: 95 % of control
endpoint: mean survival time, dose: 50.0 mg/kg/injection, schedule: Q04DX002 (ip), vehicle: saline with Tween-80
  T/C: 91 % of control
[4]
  T/C: 98 % of control
[5]
  T/C: 91 % of control
